Laboratory results published in article PMC10187093, “Synthesis, in silico modelling, and in vitro biological evaluation of substituted pyrazole derivatives as potential anti-skin cancer, anti-tyrosinase, and antioxidant agents” (Journal of Enzyme Inhibition and Medicinal Chemistry, 2023).
Like-named read-outs stand apart in the source and are kept apart here.

Experiments:
[1] = test system: SK-MEL-28; assay: MTT antiproliferative/cytotoxicity assay, SK-MEL-28; type: cell-based, human; settings: Homo sapiens, read-out: IC50 SKMEL-28
Description: (§1) Human-derived GFP-expressing melanoma A375 and epidermoid carcinoma A431 cell lines were purchased from Angio-Proteomie (Boston, MA). Human melanoma carcinoma SK-MEL-28 and human immortalised keratinocytes (HaCaT) cell lines were acquired from American Type Culture Collection (ATCC; Manassas, VA). Human cutaneous SCC cell line SCC-12[192] was generously provided by Dr. James G. Rheinwald to Dr. Tatiana Efimova. Except SK-MEL-28, which was cultured in an RPMI-1640 medium supplemented with 5% FBS, all other human immortalised cell lines were grown and maintained in DMEM containing varying percentages of FBS; 5% FBS for A431, SCC-12, and HaCaT lines, and 10% FBS for A375. All culture media were routinely supplemented with 1% PEST 100X (100 U/mL penicillin, 100 μg/mL streptomycin), and cells were cultured in incubators maintained at 37 °C under an atmosphere of 95% humidity, 20% O2, and 5% CO2. The growth media of incubated cells were changed every 2–3 days until they attained 70–80% confluence, after which they were sub-cultured for experiments and re-passaging. DMSO was used as the vehicle to prepare a 10 mM stock solution of the test compounds.
(§2) Stock solutions (10 mM) were prepared by dissolving each compound to be screened in DMSO. From these stock solutions, escalating concentrations were prepared using the corresponding cell growth media as a diluent, and the cells (65–75% confluent) were treated with (0–40 µM) or without the drug in sext- to octuplicate and incubated for 48 h. All treatment protocols and controls were prepared as previously described.
(§3) The potency and cytotoxicity of the test compounds against two cutaneous melanoma (A375 and SK-MEL-28) and two non-melanoma (A431 and SCC-12) SC cell lines in addition to a control immortalised normal human epidermal keratinocytes (HaCaT) cell line were assessed by MTT assay as previously described.

[2] = test system: HaCaT; assay: MTT cytotoxicity assay, noncancerous HaCaT keratinocytes; type: cell-based, human; settings: Homo sapiens, HaCaT, 48 h, read-out: IC50 HaCaT
Description: as §1, §2, §3

[3] = biological target: T1, mushroom tyrosinase (Agaricus bisporus, UniProt C7FF04); assay: In vitro mushroom tyrosinase inhibition assay; type: biochemical; settings: for IC50: > 500 = not biologically relevant
T1 construct: purchased Sigma-Aldrich Chemical Company (St. Louis, MO) and MP Biomedicals (Irvine, CA)
T1 sequence (C7FF04 1-392 limits assumed): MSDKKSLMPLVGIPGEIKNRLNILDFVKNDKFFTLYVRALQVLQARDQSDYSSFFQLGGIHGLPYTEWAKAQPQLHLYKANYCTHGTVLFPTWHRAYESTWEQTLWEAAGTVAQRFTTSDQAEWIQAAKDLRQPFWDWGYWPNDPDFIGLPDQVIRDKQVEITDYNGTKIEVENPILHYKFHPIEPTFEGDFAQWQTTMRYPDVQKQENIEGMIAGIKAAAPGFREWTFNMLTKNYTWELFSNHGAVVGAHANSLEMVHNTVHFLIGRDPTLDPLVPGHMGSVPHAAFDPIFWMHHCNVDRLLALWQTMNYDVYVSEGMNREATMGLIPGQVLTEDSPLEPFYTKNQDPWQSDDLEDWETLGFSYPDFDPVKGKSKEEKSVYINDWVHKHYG
Description: The anti-tyrosinase potential of all the synthesised derivatives was determined by an enzymatic tyrosinase inhibition assay based on their ability to inhibit the substrate, L-tyrosine, from binding to the tyrosinase enzyme. […] Test samples were dissolved in DMSO at a concentration of 10 mM and then diluted to different concentrations with phosphate buffer (0.1 M, pH 6.8). Each well contained 40 µL of the sample with 80 µL of phosphate buffer solution (0.1 M, pH 6.8), 40 µL of tyrosinase enzyme (100 units/mL), and 40 µL L-tyrosine (2.5 mM). The mixture was incubated for 30 min at room temperature, and absorbance was measured at 490 nm. Each sample was accompanied by a sample blank containing all components except tyrosinase. […] The percentage of tyrosinase inhibition was calculated as follows: ((ΔAcontrol – ΔAsample)/ΔAcontrol) × 100. IC50 values denoted the sample concentration required to inhibit 50% tyrosinase activity (Table S1).

[4] = test system: A375; assay: MTT antiproliferative/cytotoxicity assay, A375; type: cell-based, human; settings: Homo sapiens, A-375, 48 h, read-out: IC50 A375
Description: as §1, §2, §3

[5] = DPPH free radical scavenging assay; settings: for Percent Scavenging (DPPH): 1 mM
Description: An initial screen was done of all 25 derivatives at a concentration of 1 mM. […] Methanol was used as the diluent, and 100 µL of DPPH (200 µM; Sigma-Aldrich, St. Louis, MO) was added to each well. […] The scavenging capacity (SC) was calculated as SC% = ((ΔAcontrol – ΔAsample)/ΔAcontrol) × 100%, where ΔAcontrol was the absorbance of the reagent blank, and ΔAsample was the absorbance of the test samples. The control contained all reagents except the compounds, and all tests were performed in triplicate. Quercetin served as a positive control. The DPPH methanolic solution (1 mL) mixed with DMSO (5 µL) served as a negative control.

[6] = test system: SCC-12; assay: MTT antiproliferative/cytotoxicity assay, SCC-12; type: cell-based, human; settings: for IC50: Homo sapiens, read-out: IC50 SCC-12
Description: (§4) Human-derived GFP-expressing melanoma A375 and epidermoid carcinoma A431 cell lines were purchased from Angio-Proteomie (Boston, MA). Human melanoma carcinoma SK-MEL-28 and human immortalised keratinocytes (HaCaT) cell lines were acquired from American Type Culture Collection (ATCC; Manassas, VA). […] The growth media of incubated cells were changed every 2–3 days until they attained 70–80% confluence, after which they were sub-cultured for experiments and re-passaging. DMSO was used as the vehicle to prepare a 10 mM stock solution of the test compounds.
(§5) Stock solutions (10 mM) were prepared by dissolving each compound to be screened in DMSO.

[7] = test system: GFP-A431; assay: MTT antiproliferative/cytotoxicity assay, A431; type: cell-based, human; settings: for IC50: Homo sapiens, read-out: IC50 GFP-A431
Description: as §4, §5

[8] = SK-MEL-28, 48 h, melanoma, MTT, 48 h
[9] = control noncancerous keratinocytes, MTT
[10] = 500 µM, single-concentration screen, read-out: % Inhibition of tyrosinase
[11] = read-out: IC50 Value, mushroom tyrosinase inhibition (Table S1)
[12] = SCC12, 48 h, non-melanoma, MTT, 48 h
[13] = IC50 HaCaT divided by IC50 SCC-12
[14] = A-431, 48 h, non-melanoma, MTT, 48 h
[15] = IC50 HaCaT divided by IC50 A431
[16] = N.A. = No Activity, > 1000 = not biologically relevant, read-out: IC50 Value, DPPH antioxidant activity (Table S4)
[17] = IC50 Value, mushroom tyrosinase inhibition (Table S1)

Compound	IC50 [1, 8] [µM]	IC50 [2, 9] [µM]	inhibition at 500 µM [3, 10] [%]	IC50 [3, 11] [µM]	IC50 ([4]; melanoma, MTT, 48 h) [µM]	Percent Scavenging (DPPH) [5] [%]	IC50 [6, 12] [µM]	selectivity index (SI) SCC-12 [6, 13]	IC50 [7, 14] [µM]	selectivity index (SI) A431 [7, 15]	IC50 [5, 16] [µM]	other results
Cc1cc(-c2ccccc2)n(-c2ccc(Br)cc2)n1 [P16, 1-(4-Bromophenyl)-3-methyl-5-phenyl-1H-pyrazole]	39.1 ± 2.3	54.2 ± 3.6	17.3	> 500	46 ± 1	-24.61	19.6 ± 2	2.8	21 ± 1.3	2.6		
CCc1c(C)nn(-c2ccccc2)c1C [P7, 4-Ethyl-3,5-dimethyl-1-phenyl-1H-pyrazole]	46 ± 1	59.2 ± 3.5	55.5	> 500	53.3 ± 4.2	15.47	43 ± 2.1		47.8 ± 2		> 1000	
Cc1cc(-c2ccccc2)n[nH]1 [P3, 5-Methyl-3-phenyl-1H-pyrazole]	59.1 ± 4.6	42.1 ± 3.4	42.6	> 500	54.8 ± 2.7	-0.39	546 ± 20.7		27.2 ± 0.9			selectivity index (SI) SCC-12 [6]: 546.5 ± 20.7 (0.1); selectivity index (SI) A431 [7]: 27.2 ± 0.9 (1.6)
Cc1nn(-c2ccccc2)c2c1CCC2 [P8, 3-Methyl-1-phenyl-1,4,5,6-tetrahydrocyclopenta[c]pyrazole]	181 ± 4.7	44.5 ± 1.4	67.2 ± 0.2	190	55.3 ± 3.8	-2.57	120 ± 8.5		72.2 ± 5.2			
CC1=NN(c2ccccc2)C(=O)C1(C)O (stereo not shown) [P20]	50 ± 4.3	47.7 ± 2.7	39.7	> 500	110 ± 15.4	-20.03	57.3 ± 0.2		120 ± 2.6			DPPH antioxidant activity (in words) [5]: no appreciable antioxidant activity
CCOC(=O)c1c(C)nn(-c2ccccc2)c1C [P10, Ethyl 3,5-dimethyl-1-phenyl-1H-pyrazole-4-carboxylate]						-11.90						IC50 ([1]; SK-MEL-28, 48 h): 43.7 ± 2.7 µM; IC50 [2]: 68 ± 1.2 µM; IC50 [3, 17]: > 500 µM; inhibition at 500 µM ([3]; read-out: % Inhibition of tyrosinase): 31%; IC50 [4]: 55.3 ± 2.5 µM; IC50 ([6]; SCC12, 48 h): 49.1 ± 2 µM; IC50 ([7]; A-431, 48 h): 196 ± 3.8 µM
Cc1[nH]nc2c1CCc1ccccc1-2 [P5, 3-Methyl-4,5-dihydro-2H-benzo[g]indazole]	131 ± 2.4	265 ± 4.3	40	> 500	65.3 ± 4.2	-10.48	77.6 ± 1.7	3.4	42.1 ± 3.1	6.3		DPPH antioxidant activity (in words) [5]: inactivity
Cc1c2c(nn1-c1ccccc1)-c1ccccc1CC2 [P9, 3-Methyl-2-phenyl-4,5-dihydro-2H-benzo[g]indazole]	40.8 ± 1	43.6 ± 1.4	9.49	> 500	45.2 ± 2	5.48	28.8 ± 1.4	1.5	28 ± 3.6	1.6	> 1000	
CCc1c(C)n[nH]c1C [P1, 4-Ethyl-3,5-dimethyl-1H-pyrazole]	42.8 ± 0.3	60.5 ± 3.9	6.77	> 500	47.7 ± 4.2	5.85	257 ± 18.4		41.6 ± 0.8		> 1000	
Cc1[nH]nc2c1ccc1ccccc12 [P6, 3-Methyl-2H-benzo[g]indazole]	47.4 ± 1.2	147.2 ± 0.8	81.7 ± 0.7	> 500	114 ± 3.3	65.17	49.9 ± 3.4	3.0	69.8 ± 7.5	2.1	30.6	IC50 ([5]; read-out: IC50 DPPH radical scavenging): 30.6 ± 2.1 µM
O=C1CC(c2ccccc2)=NN1c1ccccc1 [P21]		50.1 ± 6.5			67.8 ± 2.3	73.25					354	IC50 ([1]; SK-MEL-28, melanoma, MTT, 48 h): 42.7 ± 4 µM; IC50 [3, 17]: 295 µM; inhibition at 500 µM ([3]; read-out: % Inhibition of tyrosinase, 500 µM, single-concentration screen): 88.9 ± 0.4%; IC50 ([6]; SCC12, non-melanoma, MTT, 48 h): 37.8 ± 3.2 µM; IC50 ([7]; A-431, non-melanoma, MTT, 48 h): 58.6 ± 2.3 µM
